This passage reports MIC50 and MIC90 results from ChEMBL document CHEMBL1155149, “In vitro activities of 15 antimicrobial agents against 110 toxigenic clostridium difficile clinical isolates collected from 1983 to 2004” (2007).

In brackets after ≈: the same amount, converted by molar mass.

The assay concerns Clostridioides difficile. As to the kind of experiment: Antimicrobial activity against Clostridium difficile clinical isolates by agar dilution method. The format is functional. On the technique in general: In agar dilution the substance is mixed into plates at graded concentrations.
As to `CCc1c(Cl)c(O)c(Cl)c(O)c1C(=O)O[C@H]1[C@H](O)[C@H](OC)[C@H](OC/C2=C\C=C\C[C@H](O)/C(C)=C/[C@H](CC)[C@@H](O[C@@H]3OC(C)(C)[C@@H](OC(=O)C(C)C)[C@H](O)[C@@H]3O)/C(C)=C/C(C)=C/C[C@@H]([C@@H](C)O)OC2=O)O[C@@H]1C` [FIDAXOMICIN], the MIC50 (commonly an inhibitory concentration at the 50% level, which refers to growth in some studies and to a panel of isolates in others) worked out at 0.125 µg/mL (≈ 0.118 µM); the MIC90 (in general, the lowest concentration that inhibits either 90% of growth or 90% of the strains tested, depending on the study) is 0.125 µg/mL (≈ 0.118 µM).

As for `C[C@@H](O)[C@H]1C(=O)N2C(C(=O)O)=C(S[C@@H]3CN[C@H](CNS(N)(=O)=O)C3)[C@H](C)[C@H]12` [DORIPENEM], the MIC50 worked out at 1 µg/mL (≈ 2.38 µM) and the MIC90 was determined as 2 µg/mL (≈ 4.76 µM).

Take `Cc1ncc([N+](=O)[O-])n1CCO` [METRONIDAZOLE]: the MIC50 stood at 0.125 µg/mL (≈ 0.73 µM) and the MIC90 was 0.25 µg/mL (≈ 1.46 µM).

Compound `C[C@H]1COc2c(N3CCN(C)CC3)c(F)cc3c(=O)c(C(=O)O)cn1c23.C[C@H]1COc2c(N3CCN(C)CC3)c(F)cc3c(=O)c(C(=O)O)cn1c23.O` [LEVOFLOXACIN] displayed an MIC50 of 4 µg/mL and an MIC90 of 32 µg/mL.

`C[C@@H](O)[C@H]1C(=O)N2C(C(=O)O)=C(S[C@@H]3CN[C@H](C(=O)N(C)C)C3)[C@H](C)[C@H]12` [MEROPENEM] had an MIC50 of 2 µg/mL (≈ 5.22 µM) and an MIC90 of 2 µg/mL (≈ 5.22 µM).

For the compound `CO[C@H]1/C=C/O[C@@]2(C)Oc3c(C)c(O)c4c(=O)c(c5oc6cc(N7CCN(CC(C)C)CC7)cc(O)c6nc-5c4c3C2=O)NC(=O)/C(C)=C\C=C\[C@H](C)[C@H](O)[C@@H](C)[C@@H](O)[C@@H](C)[C@H](OC(C)=O)[C@@H]1C` [RIFALAZIL], the MIC50 is 0.0075 µg/mL (≈ 0.00797 µM) and the MIC90 worked out at 0.03 µg/mL (≈ 0.0319 µM).

`CC(=O)Oc1ccccc1C(=O)Nc1ncc([N+](=O)[O-])s1` [NITAZOXANIDE]: the MIC50 came out at 0.06 µg/mL (≈ 0.195 µM) and the MIC90 was determined as 0.125 µg/mL (≈ 0.407 µM).

On to `O=C(Nc1ncc([N+](=O)[O-])s1)c1ccccc1O` [TIZOXANIDE], for which the MIC50 amounted to 0.06 µg/mL (≈ 0.226 µM) and the MIC90 was found to be 0.125 µg/mL (≈ 0.471 µM).

`CCS(=O)(=O)CCn1c([N+](=O)[O-])cnc1C` [TINIDAZOLE] yielded an MIC50 of 0.125 µg/mL (≈ 0.506 µM) and an MIC90 of 0.25 µg/mL (≈ 1.01 µM).

Turning to `CO[C@H]1/C=C/O[C@@]2(C)Oc3c(C)c(O)c4c(O)c(c5c(nc6cc(C)ccn65)c4c3C2=O)NC(=O)/C(C)=C\C=C\[C@H](C)[C@H](O)[C@@H](C)[C@@H](O)[C@@H](C)[C@H](OC(C)=O)[C@@H]1C` [RIFAXIMIN], the MIC50 amounted to 0.0075 µg/mL (≈ 0.00954 µM) and the MIC90 is 0.015 µg/mL (≈ 0.0191 µM).

The compound `CN[C@H](CC(C)C)C(=O)N[C@H]1C(=O)N[C@@H](CC(N)=O)C(=O)N[C@H]2C(=O)N[C@H]3C(=O)N[C@H](C(=O)N[C@H](C(=O)O)c4cc(O)cc(O)c4-c4cc3ccc4O)[C@H](O)c3ccc(c(Cl)c3)Oc3cc2cc(c3O[C@@H]2O[C@H](CO)[C@@H](O)[C@H](O)[C@H]2O[C@H]2C[C@](C)(N)[C@H](O)[C@H](C)O2)Oc2ccc(cc2Cl)[C@H]1O` [VANCOMYCIN] gave an MIC50 of 1 µg/mL (≈ 0.69 µM) and an MIC90 of 1 µg/mL (≈ 0.69 µM).

Compound `CN(C)c1cc(NC(=O)CNC(C)(C)C)c(O)c2c1C[C@H]1C[C@H]3[C@H](N(C)C)C(O)=C(C(N)=O)C(=O)[C@@]3(O)C(O)=C1C2=O` [TIGECYCLINE] came in with an MIC50 of 0.125 µg/mL (≈ 0.213 µM) and an MIC90 of 0.25 µg/mL (≈ 0.427 µM).

`COc1c(N2CCNC(C)C2)c(F)cc2c(=O)c(C(=O)O)cn(C3CC3)c12` (stereo unspecified) [GATIFLOXACIN] yielded an MIC50 of 1 µg/mL (≈ 2.66 µM) and an MIC90 of 16 µg/mL (≈ 42.6 µM).
